Source: patent publication US8318805B2, “Modulation of nitric oxide synthases by betaines” (priority 2004, dated 2012)
“And” between values parts separate entries of the source, which are not always exact repeats. Equal values may be shown once.

Assays:
[1] = tested on: photochemically-induced brain ischemia; test: Photochemically-induced (rose Bengal) focal cerebral ischemia on rats; type: in vivo, rat; conditions: for Red Ischemic Area, Excluding Blue Evan Penumbra / Weight of ischemic area: mean
Excerpt: The aim of this study was to evaluate the activity of Betaine on thrombus formation in a rat model of photochemically-induced brain ischemia. The method (11) is based on local free radical release exerted by filtered light acting on rose Bengal previously injected in animals. Free radicals are known to induce endothelial damage, followed by platelet aggregation, thrombus formation and vascular occlusion. Briefly, an optic fiber in close contact shone denuded intact skulls (diameter of the illuminated circle 5.4 mm, luminance at the entrance of optic fiber was 5.6×10^6 Ix). After turning on the lamp, an infusion through the caudal vein of a 5 mg/mL (w/v) solution of rose Bengal in saline was started. Two mL of the solution were administered at a flow rate of 0.1 mL/min. After 20 min, at the end of the infusion, the lamp was turned off. [table] Evan's Blue solution (2% w/v) in saline was intravenously injected (1 mL/rat), 18-20 h after the ischemia induction in order to reveal the BBB breakdown. The rats were sacrificed 20 min after Evan's Blue injections and their brains removed. The infarcted area was visually verified, photographed by digital camera and then weighed.

total nitric oxide = test: Nitric oxide plasma levels in healthy volunteers after repeated betaine ingestion; type: in vivo, human; design: Nitric oxide plasma levels Conc / Nitric oxide plasma levels Conc (×2): unit not given here; conditions: for Nitric oxide plasma levels Conc / Nitric oxide plasma levels Conc (×2): individual donors
Method: (§1) After obtaining the baseline blood samples (sample a) from fastened normal healthy volunteers (n=10), Betaine was repeatedly administered in daily doses of 6 g. (2×3) for 1 week. After obtaining the 1 week blood sample from fastened volunteers (sample b) Betaine was again administered orally at a dose of 3 g. and a third blood sample drawn after one hour (sample c). […] The blood samples were centrifuged and the separated platelet poor plasma was then aliquoted and frozen at −70° C. for subsequent analysis for nitric oxide (NO), tissue factor pathway inhibitor (TFPI) activity levels and global clotting assays.
(§2) The samples are identified for each donor as number of donor (1, 2, etc) followed by the letter of the sample (a, b, c).

[2] = tested on: Tissue Factor Pathway Inhibitor (TFPI); test: TFPI activity plasma levels in healthy volunteers after repeated betaine ingestion; type: in vivo, human; conditions: for TFPI ACTIVITY: individual donors
Method: as §1, §2

[3] = tested on: fresh blood (Thromboelastograph); test: TEG parameters after betaine oral administration in healthy volunteers; type: in vivo, human; conditions: evaluated with TEG
[4] = tested on: Pulmonary Arterial Hypertension; test: Betaine added to Bosentan in patients with Pulmonary Arterial Hypertension (PAP, heart rate, 6MWT); type: in vivo, human; conditions: after two weeks of anhydrous betaine 6 g/day bid added to Bosentan 125 mg bid
Method: Nine patients suffering from Pulmonary Arterial Hypertension and taking 125 mg Bosentan bid were randomly assigned to placebo (lactose monohydrate) 6 g/day bid (4 patients) or to anhydrous betaine 6 g/day bid (5 patients) during two weeks. They were assessed for haemodynamic variables and for 6 minutes walking test at inclusion and after the two weeks of medication with placebo or betaine. Pulmonary Artery Pressure (PAP) and Heart rate were non-invasively estimated by Doppler echocardiography method. 6MWT was performed on a treadmill.

[5] = tested on: blood (rate of initial fibrin formation); test: TEG at each blood draw during repeated betaine ingestion; type: in vivo, human; conditions: compared to the baseline values; 6 g daily for 1 week, then 3 g
Method: as §1

[6] = tested on: thrombus formation in mesenteric veinules or arterioles; test: Laser-induced thrombosis in rat mesenteric circulation; type: in vivo, Wistar rats; conditions: for duration of embolisation / emboli / laser beams: oral 60 minutes before laser thrombosis
Excerpt: Male Wistar rats (200-270 gram) were used for the experiments. […] After the medial laparotomy the intestinal loop was placed on the microscope table. Vascular lesions were produced by Argon laser […] This shot causes a well limited lesion of the vascular endothelium (only few cells are destroyed) exposing the thrombogenetic under-layer of the sub-endothelium. The contact of blood with this surface triggers the adherence of platelets via glycoproteins Ib & IIb IIIa. This adherence of platelets is followed by their activation: they form pseudopods and secrete the content of their granules. As a consequence thrombus formation occurs within few seconds. This platelet rich thrombus rapidly enlarges under influence of blood flow, embolises (i.e. is disrupted and carried by the flow from the thrombogenic area) before a new thrombus being formed again on the injured surface. […] Up to four shots can be fired if no emboli (platelet thrombus) are readily appearing. The number of successive laser beams and emboli formed are then recorded. In the presence of an antithrombotic compound a higher number of laser shots are necessary to induce thrombus formation. Similarly, a smaller number of emboli (platelet thrombi) are formed as compared with controls and the duration of the embolisation is also shorter. […] Similarly, a higher number of emboli (platelet thrombi) are formed as compared with controls and the duration of the embolisation is also longer. Betaine is orally administrated to animals at 50 mg/kg, 60 minutes before laser thrombosis.

[7] = tested on: Tissue Factor Pathway Inhibitor (TFPI); test: TFPI concentration plasma levels in healthy volunteers after repeated betaine ingestion; type: in vivo, human; conditions: for TFPI CONCENTRATION: individual donors
Method: as §1, §2

nitric oxide = test: Nitric oxide production in healthy volunteers after single betaine ingestion (plasma, Griess reaction); type: in vivo, human; design: Conc. (nitric oxide) / Conc. (2) (nitric oxide): unit not given here
Method: Betaine is administrated at 75 mg/kg single oral dose at T0 to fastened healthy volunteers just after the basal blood sample. At T0 and T0+60 mn fresh blood samples are centrifuged to obtain plasma.
The samples are then tested for nitric oxide with the Griess reaction.

[8] = tested on: fresh blood (Thromboelastograph); test: TEG parameters after betaine oral administration in healthy volunteers; type: in vivo, human; conditions: for K / MA / R / α Angle: T0 + 60 mn after 75 mg/kg single oral dose
Method: Betaine is administrated at 75 mg/kg single oral dose at T0 to fastened healthy volunteers just after the basal blood sample. At T0 and T0+60 mn the fresh blood samples are immediately evaluated in the Thromboelastograph (TEG®—Haemoscope Corp.—Illinois).
R parameter corresponds to […] initial fibrin formation, and is functionally related to plasma clotting factors and clot formation.

[9] = tested on: whole blood platelet aggregation; test: Whole blood aggregation, ADP 5 μM; type: in vivo, Wistar rats; conditions: oral
Method: Blood is sampled by intracardiac puncture on trisodium citrate solution (3, 8% sodium citrate/blood 1/9 vv) using the 2 syringes technique.
ADP 5 μM in final concentration is used as agonist. Amplitudes are expressed in ohms (Ω) and velocities in ohm/min (Ω/min)

[10] = ASA 50 mg/kg iv 30 min before ischemia induction, n = 5
[11] = ASA 200 mg/kg iv 30 min before ischemia induction, n = 10
[12] = Betaine 10 mg/kg sc 1 h before ischemia induction, n = 10
[13] = Betaine 10 mg/kg sc at the end of ischemia induction, n = 10, (*) P<0,05
[14] = betaine oral administration, healthy volunteers (n=10)
[15] = sample b: fasted, after 6 g daily (2×3) for 1 week
[16] = sample c: one hour after a further 3 g oral dose following 1 week of 6 g daily
[17] = plasma, Post = T0+60 mn after 75 mg/kg single oral dose, individual volunteers
[18] = healthy volunteers, 60 minutes after oral administration
[19] = mean T0 + 60 mn versus mean basal value
[20] = Celebrex 10 mg + saline, individual rats
[21] = Celebrex 10 mg + saline, mean of 6 rats
[22] = NS 398 5 mg + saline, individual rats
[23] = NS 398 5 mg + saline, mean of 6 rats

CC(=O)Oc1ccccc1C(=O)O [ASA, Acetylsalicylic acid, reference compound]
Red Ischemic Area, Excluding Blue Evan Penumbra [1, 10]: 0.322 cm^2 | Weight of ischemic area [1, 10]: 35.0 mg | Red Ischemic Area, Excluding Blue Evan Penumbra [1, 11]: 0.29 cm^2 | Weight of ischemic area [1, 11]: 40 mg

C[N+](C)(C)CC(=O)O [Betaine, glycine betaine]
Red Ischemic Area, Excluding Blue Evan Penumbra [1, 12]: 0.335 cm^2 | Weight of ischemic area [1, 12]: 36 mg | Red Ischemic Area, Excluding Blue Evan Penumbra [1, 13]: 0.28 cm^2 | Weight of ischemic area [1, 13]: 25 mg | Efficacy in the stroke model compared with Aspirin ([1]; rat, Betaine 10 mg/kg sc): better efficacy than Aspirin | Crossing of encephalic barrier ([1]; rat, after being present in blood stream): ability to cross encephalic barrier | Nitric oxide levels (total nitric oxide; [14]): increased | Nitric oxide plasma levels Conc (total nitric oxide; [15]): 29.11 and 28.89 and 9.11 and 26.28 and 20.2 and 22.59 and 13.24 and 21.5 and 24.11 and 14.11 | Nitric oxide plasma levels Conc (×2) (total nitric oxide; [15]): 58.217 and 57.783 and 18.217 and 52.565 and 40.391 and 45.174 and 26.478 and 43 and 48.217 and 28.217 | Nitric oxide plasma levels Conc (total nitric oxide; [16]): 14.54 and 41.07 and 39.96 and 27.8 and 26.72 and 22.8 and 25.85 and 11.93 and 31.28 and 27.15 | Nitric oxide plasma levels Conc (×2) (total nitric oxide; [16]): 29.087 and 82.13 and 79.957 and 55.609 and 53.435 and 45.609 and 51.696 and 23.87 and 62.565 and 54.304 | TFPI activity plasma levels [2, 14]: increased | TFPI ACTIVITY [2, 15]: 3.30 U/ml and 181.61 ng/ml and 2.74 U/ml and 150.83 ng/ml and 2.66 U/ml and 146.34 ng/ml and 2.30 U/ml and 126.36 ng/ml and 2.17 U/ml and 119.46 ng/ml and 4.66 U/ml and 256.55 ng/ml and 3.39 U/ml and 186.37 ng/ml and 2.99 U/ml and 164.44 ng/ml and 3.52 U/ml and 193.76 ng/ml and 4.43 U/ml and 243.59 ng/ml | TFPI ACTIVITY [2, 16]: 3.60 U/ml and 197.99 ng/ml and 2.19 U/ml and 120.49 ng/ml and 1.71 U/ml and 94.20 ng/ml and 2.74 U/ml and 150.83 ng/ml and 2.98 U/ml and 163.73 ng/ml and 4.53 U/ml and 248.91 ng/ml and 3.65 U/ml and 200.57 ng/ml and 3.23 U/ml and 177.73 ng/ml and 3.45 U/ml and 189.62 ng/ml and 4.03 U/ml and 221.52 ng/ml | R prolongation compared with Lovenox in post orthopaedic surgery patients [3]: as potent as Lovenox® anticoagulation | Heart rate 2 ([4]; individual patients): 84 beats/minute and 67 beats/minute and 74 beats/minute and 69 beats/minute and 72 beats/minute | Week 2 ECO 2 PAP ([4]; individual patients): 71 mmHg and 60 mmHg and 80 mmHg and 65 mmHg and 58 mmHg | 6MWT 2 ([4]; mean of 5 patients): 413 m | Heart rate 2 ([4]; mean of 5 patients): 73.2 beats/minute | Week 2 ECO 2 PAP ([4]; mean of 5 patients): 66.8 mmHg | 6MWT 2 ([4]; treadmill, individual patients): 380 m and 504 m and 360 m and 411 m and 410 m | TEG reaction time, i.e. rate of initial fibrin formation [5]: marked prolongation | Number of laser beams, number of emboli and duration of embolisation relative to saline control values ([6]; Betaine co-administration with selective COX 2 inhibitors): normalise | Protection from selective COX 2 inhibitors thrombogenicity ([6]; rats, Betaine co-administered orally at 50 mg/kg): clearly protects animals from selective COX 2 inhibitors thrombogenicity | TFPI concentration plasma levels [7, 14]: increased | TFPI CONCENTRATION [7, 15]: 59.45 ng/mL and 66.23 ng/mL and 84.35 ng/mL and 47.14 ng/mL and 64.57 ng/mL and 76.40 ng/mL and 93.34 ng/mL and 47.28 ng/mL and 70.31 ng/mL and 89.81 ng/mL | TFPI CONCENTRATION [7, 16]: 86.98 ng/mL and 70.38 ng/mL and 76.12 ng/mL and 70.52 ng/mL and 82.62 ng/mL and 89.19 ng/mL and 87.74 ng/mL and 58.62 ng/mL and 63.25 ng/mL and 83.38 ng/mL | Nitric oxide levels (nitric oxide; oral administration, all tested volunteers): markedly increased | Conc. (2) (nitric oxide) (nitric oxide; [17]): 41.81 and 24.14 and 65.53 and 114.21 and 70.19 and 72.51 | Conc. (nitric oxide) (nitric oxide; [17]): 20.91 and 12.07 and 32.77 and 57.42 and 35.09 and 36.26 | K ([8]; individual volunteers): 2.5 mn and 1.8 mn and 2.0 mn and 1.3 mn (2×) and 2.7 mn | MA ([8]; individual volunteers): 52.6 mm and 65.0 mm and 56.8 mm and 65.8 mm and 61.9 mm and 70.1 mm | R ([8]; individual volunteers): 5.8 mn and 7.3 mn and 7.4 mn and 4.8 mn and 8.4 mn and 6.3 mn | α Angle ([8]; individual volunteers): 57.5 ° and 65.5 ° and 64.2 ° and 71.9 ° and 66.9 ° and 70.4 ° | K ([8]; mean of 6 volunteers): 1.9 mn | MA ([8]; mean of 6 volunteers): 62.0 mm | R ([8]; mean of 6 volunteers): 6.8 mn | α Angle ([8]; mean of 6 volunteers): 66.1 ° | Blood coagulation (R parameter) [8, 18]: significantly prolonged | Other TEG parameters [8, 18]: remained stable | Δ K [8, 19]: −8% | Δ MA [8, 19]: +3% | Δ R [8, 19]: +45% | Δ α Angle [8, 19]: +1%

Cc1ccc(-c2cc(C(F)(F)F)nn2-c2ccc(S(N)(=O)=O)cc2)cc1 [Celebrex ®]
amplitude [9, 20]: 13 Ω (3×) and 12 Ω and 14 Ω and 21 Ω | velocity [9, 20]: 8 Ω/min (2×) and 7 Ω/min (2×) and 13 Ω/min and 9 Ω/min | amplitude [9, 21]: 14.33 Ω | velocity [9, 21]: 8.67 Ω/min | duration of embolisation [6, 20]: 4 (2×) and 5 (3×) and 9 | emboli [6, 20]: 9 and 8 and 11 (2×) and 17 and 12 | laser beams [6, 20]: 2 (3×) and 1 (3×) | duration of embolisation [6, 21]: 5.33 | emboli [6, 21]: 11.33 | laser beams [6, 21]: 1.5

CS(=O)(=O)Nc1ccc([N+](=O)[O-])cc1OC1CCCCC1 [NS 398]
amplitude [9, 22]: 9 Ω (2×) and 10 Ω and 2 Ω and 12 Ω and 6 Ω | velocity [9, 22]: 9 Ω/min and 7 Ω/min (4×) and 5 Ω/min | amplitude [9, 23]: 8 Ω | velocity [9, 23]: 7 Ω/min | duration of embolisation [6, 22]: 5 (2×) and 4 (2×) and 3 and 2 | emboli [6, 22]: 11 and 9 (2×) and 10 and 7 and 8 | laser beams [6, 22]: 2 (5×) and 1 | duration of embolisation [6, 23]: 3 | emboli [6, 23]: 9 | laser beams [6, 23]: 1.83
